In one data set the test system is CT26 tumor. The settings on record: for ORR (%): 3 days after end of treatment; for Relapse (recurrence): tumor growth at least 5 fold in mice with CR or PR; for CR / PD / PR: number of mice. As for the experimental part:
Anti-Colorectal Cancer Activity in Animal Models. Animal study was approved and overseen by The Taipei Medical University Institutional Animal Care and Use Committee (TMU IACUC, NO: LAC-2020-0103, LAC-2019-0644). Six- to eight-week-old male Balb/c mice (National Laboratory Animal Center, Taiwan) were used for all animal experiments. CT26 cell line was purchased from ATCC. CT26 tumor cell lines were grown in RPMI-1640 supplemented with 10% (vol/vol) FBS at 37° C., 5% CO2. Tumors were established by s.c. injection of 1×10^6 CT26 cells with Matrigel (354248, Corning®) into the left flank of mice, and growth determined by measuring two perpendicular diameters. Tumors were allowed to grow for 8-12 days (tumor size about 110-250 mm^3) before randomization and treatment. Animals were euthanized when tumors reached more than 3000 mm^3 in volume. An anti-IgG antibody (BE0089, Lot #716719J3, Bio X Cell), anti-PD-1 antibody (BE0146, Lot #717918D1, Lot #735019J3, Lot #780120J3, Lot #73501901, Bio X Cell), anti-PD-L1 antibody (BE0101, Lot #720619F1, Bio X Cell) and anti-CTLA-4 antibody (BE0164, Lot #702418A2B, Bio X Cell) were administered i.p. at 2.5 mg/kg twice a week for three weeks. All antibodies were diluted to appropriate concentrations in 100 μL of sterile PBS (pH 7.4, Invitrogen Life Technologies). Axitinib (HY-10065, 30 mg/kg, po daily, MedChemExpress USA), Lenvatinib (HY-10981, 10 mg/kg, po daily, MedChemExpress USA), Olaparib (HY-10162, 50 mg/kg, po daily, MedChemExpress USA), Ibrutinib (HY-10997, 6 mg/kg, po daily, MedChemExpress USA), Cabozantinib (HY-13016, 30 mg/kg, po daily, MedChemExpress USA), Regorafenib (HY-1031, 30 mg/kg, po daily, MedChemExpress USA), RMC-4550 (HY-116009, 30 mg/kg, po daily, MedChemExpress USA), Sitravatinib (HY-16961, 20 mg/kg, po daily, MedChemExpress USA), Entinostat (HY-12163, 20 mg/kg, po q2d, MedChemExpress USA), Vorinostat (HY-10221, 150 mg/kg, po daily, MedChemExpress USA), Chidamide-k30 or Chidamide-HCl salt (50 mg/kg, po daily, produced from GNTbm, Taipei, Taiwan), Celecoxib (50 mg/kg, po daily, capsule/Celebrex®, Pfizer Pharmaceuticals LLC) were given for 16 days. Axitinib, Lenvatinib, Olaparib, Ibrutinib, Cabozantinib, Regorafenib, Entinostat, Vorinostat, RMC-4550, Sitravatinib and Celecoxib were dissolved in DMSO and diluted in PBS before administration. Chidamide-k30 and Chidamide-HCl salt were dissolved in water. Animals were euthanized when tumors reached more than 3000 mm^3 in volume. The anti-cancer activity was measured from the start of the treatment until the tumor volume reached 3,000 mm^3. Tumor volume was calculated as length×width^2×0.5. In this study, we defined Complete Response (CR, <0.5 time tumor growth in the tumor bearing mice at three days after the end of treatment); Partial Response (PR, tumor size ≥0.5 time tumor growth, but <1 times tumor growth in the tumor bearing mice at three days after the end of treatment); Stable Disease (SD, tumor size ≥1 time tumor growth, but <5 times tumor growth in the tumor bearing mice at three days after the end of treatment); Progressive Disease (PD, tumor size ≥5 times tumor growth in tumor bearing mice at three days after the end of treatment) for the evaluation of treatment efficacy. The recurrence was defined as when having tumor growth at least 5 fold in mice with CR or PR response after first tumor assessment.
Survival Rate in Animal Models. After tumor assessment the tumor volume of the mice was measured once every three or four days (twice/week). The tumor-bearing mice were regarded as dead when the tumor volume reached 3,000 mm^3. All treatment groups were recorded and analyzed.

Another data set has as its system CT26 cells. In words: Tumor rechallenge with CT26 cells in mice with PR/CR response (immunity). Format: in vivo, Balb/c mice. Particulars: for Immunity (rechallenge): mice resistant to CT26 re-challenge. On the procedure:
Tumor Rechallenges in Animal Models. All mice with PR/CR response after treatment were rechallenged with CT26 cells on the contralateral side (please see FIG. 6(F)). The rechallenge with CT26 was performed on day 34±2, which was 7 days […] after first tumor assessment (day 27±2), with injection of 5×10^6 CT26 cells per mouse. After rechallenge with CT26 cells, tumors were allowed to grow for another 7 days (day 41±2) to determine the baseline as 1 fold. After further 10 days (day 51±2), the tumor growth was evaluated for the rechallenge. If two of the following criteria are met, the response will be considered as rechallenge-induced recurrence/relapse: first, the tumor size over 2 folds when compared to that of baseline on day 41±2; second, the tumor volume on day 51±2 was over 300 mm^3. Relapse happens when immunity is not sufficiently activated. If the tumor growth is inhibited, it means the immunity is activated.
We were interested in researching more powerful regimens to regulate the TME for boosting the immune response rate. First, we were to evaluate the Lenvatinib and Lenvatinib combined with anti-PD-1 Ab in CT26-bearing mice model. […] CT26 tumor-bearing mice were euthanized when tumor volume reached 3000 mm^3 after tumor implantation. […] Next, we were interested to evaluate immunity stimulated by different treatments in a rechallenge experiment as outlined in FIG. 6(F). The mice with CR or PR went into a wash-out stage of 7 days (until day 34±2) without any further treatment. Then rechallenge was performed with the same kind of cancer cells (CT26; 5×10^6) inoculated on the opposite flank for about another 7 days (day 41±2) and then the tumor volume would be determined as baseline (1 fold). The rechallenge tumor was allowed to grow for 10 days, and then assessed to evaluate the tumor growth (day 51±2). The immunity was defined as negative, when it met two conditions: the tumor volume was over 300 mm^3, or the tumor size was over 2 fold when compared to baseline. […] If the immune memory was not induced or not fully activated, resulting in the growth of tumors inoculated during the rechallenge (tumor recurrence), then the immunity would be defined as negative. […] The rechallenge experiment was used to re-confirm whether the regimens have stimulated the immune system's ability to activate immune memory directly or indirectly.

Where [1] appears, read: FIG. 9, initial tumor volume 251 mm^3.

“And” between values parts separate entries of the source, which are not always exact repeats. Equal values may be shown once. Read-outs that look alike come from different tables or passages of the source.

As for `CNC(=O)c1cc(Oc2ccc(NC(=O)Nc3ccc(Cl)c(C(F)(F)F)c3)c(F)c2)ccn1` [Regorafenib], in the data set with CT26 tumor (FIG. 9), the “Survival Rate (%)” value is listed as 13%, the “Relapse (recurrence)” value worked out at 50%, the CR stood at 2 and the PD amounted to 2. Besides, in the data set on CT26 tumor (FIG. 9), the PR amounted to 0. In addition, the “ORR (%)” value with CT26 tumor (setting [1]) stood at 25%. Also, the “Immunity (rechallenge)” value in the data set on CT26 cells (FIG. 9) is reported as 50%.

Take `CNC(=O)c1ccccc1Sc1ccc2c(/C=C/c3ccccn3)n[nH]c2c1` [Axitinib]: in the data set with CT26 tumor (FIG. 9), the “Survival Rate (%)” value worked out at 38%, the “Relapse (recurrence)” value is on record as 0%, the CR is 3 and the PD was found to be 4. Further, in the data set on CT26 tumor (FIG. 9), the PR worked out at 0. Besides, in the data set with CT26 tumor (setting [1]), the “ORR (%)” value is 37.5% and 38%.

`COc1cc2nccc(Oc3ccc(NC(=O)C4(C(=O)Nc5ccc(F)cc5)CC4)cc3)c2cc1OC` [Cabozantinib]: in the data set with CT26 tumor (FIG. 9), the “Survival Rate (%)” value is 14%, the “Relapse (recurrence)” value is on record as 67%, the CR is given as 3 and the PD turned out to be 2. Also, the PR in the data set on CT26 tumor (FIG. 9) was determined as 0. For the same compound, the “ORR (%)” value with CT26 tumor (setting [1]) worked out at 43%. Also, in the data set on CT26 cells (FIG. 9), the “Immunity (rechallenge)” value is 100%.

For the compound `COc1cc2nccc(Oc3ccc(NC(=O)NC4CC4)c(Cl)c3)c2cc1C(N)=O` [Lenvatinib], in the data set on CT26 tumor (FIG. 6), the “Survival Rate (%)” value was determined as 10%, the “Relapse (recurrence)” value was 67%, the CR came to 1 and the PD stood at 2. Moreover, the PR with CT26 tumor (FIG. 6) was determined as 2. In the data set with CT26 tumor (FIG. 6, initial tumor volume 190 mm^3), the “ORR (%)” value came out at 30%. In the data set on CT26 tumor (FIG. 9), the “Survival Rate (%)” value was determined as 0%, the “Relapse (recurrence)” value is recorded as 100%, the CR was 0 and the PD worked out at 2. In addition, the PR in the data set with CT26 tumor (FIG. 9) is recorded as 1. In addition, the “ORR (%)” value with CT26 tumor (setting [1]) was 12.5% and 13%. The body weight result in the data set with CT26 tumor (mouse, in vivo) is reported as “mildly reduced”. Moreover, in the data set on CT26 cells (FIG. 6(G), mice that achieved CR/PR), the “tumor recurrence after the rechallenge” value was 33%. The “Immunity (rechallenge)” value in the data set with CT26 cells (FIG. 6, overall immune memory) amounted to 67%.

Source of the values: US20220251218A1, “PHARMACEUTICAL COMBINATION AND METHOD FOR OVERCOMING IMMUNE SUPPRESSION OR STIMULATING IMMUNE RESPONSE AGAINST CANCER” (GNT BIOTECH & MEDICALS CORPORATION, priority 2021, published 2022).
